Test results: US20080299123A1, “TREATMENT OF CHEMOTHERAPY- OR RADIOTHERAPY-RESISTANT TUMORS” (Deutsches Krebsforschungszentrum Stiftung des offentlichen …, priority 2006, published 2008)
“Also recorded” adds a separate entry of the source.

Experiments:
[1] = tested on: ERK and FAK phosphorylation; experiment: Phosphorylation of ERK and FAK in L1-depleted OVMz cells; type: cell-based
Protocol: (C) Phosphorylation of ERK1/2, FAK, and PAK 1 was analyzed in L1-siRNA depleted cell. (D and E) analysis of apoptosis by Nicoletti staining.
(§1) SDS-PAGE under reducing conditions and transfer of separated proteins to Immobilon membranes using semi-dry blotting was described before. After blocking with 5% skim milk in TBS, the blots were developed with the respective primary antibody followed by peroxidase conjugated secondary antibody and ECL detection. The isolation and characterization of soluble L1 from ascites fluid was described before. Briefly, the vesicle cleared ascites fluid from ovarian carcinoma patients was adsorbed to Sepharoselinked mAb L1-11A and bound L1 was eluted with 0.1 M Glycin/HCl buffer pH 2.8. Eluted fractions were neutralized and an aliquot of the samples was analyzed by SDS-PAGE. Cell pellets were lysed in lysis buffer (20 mM Tris/HCl pH 8.0 containing 1% Triton X-100, 150 mM NaCl, 1 mM PMSF), cleared by centrifugation and mixed with two fold-concentrated reducing SDS-sample buffer.
(§2) Transfection of siRNAs was described before. L1 (5′-AGGGAUGG-UGUCCACCUUCAAAUU-3′) siRNA (SEQ ID NO: 1) was synthesized by MWG-Biotech (Ebersberg, Germany). Cells were transfected with annealed siRNAs using Oligofectamine (Life Technologies) and analyzed after the indicated time points.

OVMz cells = experiment: Apoptosis by Nicoletti staining in siRNA transfected OVMz cells; type: cell-based; details: compared to control siRNA treated cells
Protocol: (§3) Cells (1×10^5 cells per well) were cultured in duplicate in 6 well culture plates and, after washing once with PBS, incubated for the indicated timepoints with or without apoptotic stimuli in serum-free medium. Staurosporine (2 μM), C2-ceramide (40 μM) or cisplatin (17 μM) were used as apoptotic reagents. For hypoxia studies, cells were incubated for different time points under hypoxic conditions (1% O2) using a Reming Bioinstruments chamber and oxygen regulator (Reming Bioinstruments, Redfield, N.Y.).
(§4) For quantification of DNA fragmentation, supernatants were centrifuged at 200×g. The cell pellet was washed once in PBS (pH 7.4) and lysed in a hypotonic lysis buffer (0.1% sodium citrate, 0.1% Triton X-100, 50 μg/ml propidiumiodite) at 4° C. overnight. The nuclei were then analyzed for DNA content by flow cytometry. The staining of cells for flow cytometry with mAbs and PE-conjugated secondary antibodies has been described. Cells were analysed with a FACScan using Cellquest or FlowJo software from Becton Dickinson (Heidelberg, Germany).
as §2

L1 = experiment: siRNA-mediated knockdown of L1 in OVMz cells (FACS, Western blot); type: cell-based, human; details: 48 hours after transfection
Protocol: (A) OVMz cells were transfected with L1-specific siRNA or control siRNA. After 48 hrs, cells were stained with mAb L1-11A to L1 followed by PE-conjugated anti-mouse IgG antibody and subjected to FACS analysis. (B) Cell lysates were analyzed by Western blot analysis using antibodies to the L1 ectodomain (mAb L1-11A) or the cytoplasmic portion (pcytL1). The L1-32 fragment is the ADAM10-mediated ectodomain cleavage fragment.
as §4
(§5) SDS-PAGE under reducing conditions and transfer of separated proteins to Immobilon membranes using semi-dry blotting was described before. […] Eluted fractions were neutralized and an aliquot of the samples was analyzed by SDS-PAGE. […]
Transfection of siRNAs was described before. […] Cells were transfected with annealed siRNAs using Oligofectamine (Life Technologies) and analyzed after the indicated time points.

OVMz = details: L1 high expressing cell line OVMz; previous work [29]; read-out: IC50 for cisplatin; cited from earlier work
HEK293 cells [2] = experiment: Induction of apoptosis, Nicoletti staining, in HEK293 cells; type: cell-based, human; details: L1-negative cells; cisplatin 17 μM
Protocol: as §3, §4

HEK293-hL1 cells [3] = experiment: Induction of apoptosis, Nicoletti staining, in HEK293-hL1 cells; type: cell-based, human; details: L1 positive cells; cisplatin 17 μM
Protocol: as §3, §4

m130 cells = experiment: Long-term cisplatin treatment of m130 cells; type: cell-based
Protocol: (A) Light microscopy of cisplatin treated and no-treated m130 cells. Note the more elongated morphology after treatment for 3 weeks. The bar represents 10 μm. (B) FACS analysis of cisplatin treated m130 cells with mAb L1-11A against human L1-CAM. The analysis was carried out as described in FIG. 1. (C) Western blot analysis of cell lysate from cisplatin treated on non-treated m130 cells. (D) FACS analysis of cisplatin treated SW707 colon carcinoma cells with mAb L1-11A against human L1-CAM.
We studied whether long-term cisplatin treatment of L1-negative m130 cells would augment L1 expression. M130 cells were treated cells with increasing amounts of cisplatin over a time period of 3 weeks (10 μM first week, 15 μM second week, 20 μM third week).

m130 = details: L1 negative cell line m130; previous work [29]; read-out: IC50 for cisplatin; cited from earlier work
HEK293-hL1wt cells = experiment: Haptotactic cell migration on fibronectin, HEK293-hL1wt; type: cell-based, human; details: MEK inhibitor at 20 μM
Protocol: (A) L1 processing and cleavage in transfected HEK293 cells. The cell lysates were analyzed by Western blot with pcyt-L1 recognizing the cytoplasmic portion of L1. The nomenclature of L1-cleavage fragments is according to a previous publication (Mechtersheimer et al, 2001). (B) ELISA analysis. Soluble L1 levels in the medium of HEK293-hL1wt or HEK293-hL1mutTS cells treated with or without PMA stimulation for 1 h at 37° C. was analyzed. Lysates from both cell lines were used as positive controls. (C) Stimulation of cell migration on fibronectin by recombinant L1-Fc. The fusion protein was added at the final concentration of 0.6 μg/ml. […] (E) Phosphorylation of ERK1/2, FAK, PAK 1 and Src was analyzed in HEK293, HEK293-hL1wt and HEK293-hL1mutTS cells grown in serum. […] Labelled proteins were detected by autoradiography.
(A) HEK293 cells or HEK293-hL1wt cells were transfected transiently with plasmids (10 μg DNA) encoding hL1mut, dominant-negative ADAM10 (ADAM10-DN) or empty pcDNA3 vector. […] 48 h after transfection, cells were analyzed for haptotactic cell migration on fibronectin. […] 48 h after transduction with hL1wt or hL1mutTS adenovirus or YFP-TM adenovirus for control, KS cells or the L1 positive ovarian carcinoma cells OVMz, SKOV3ip and MO68 were analyzed for haptotactic cell migration on fibronectin as described in the legend to FIG. 1. […]

HEK293-hL1 cells [4] = experiment: Soluble L1 rescue from staurosporine induced apoptosis, HEK293-hL1; type: cell-based, human; details: staurosporine 12 hours, purified soluble L1 10 μg/ml
Protocol: (§6) (A) HEK293 and HEK293-hL1 cells were treated with staurosporine for the indicated length of time in the presence or absence of purified soluble L1 (10 μg/ml). Cell survival was determined by Nicoletti staining. (B) Analysis of FAK phosphorylation in HEK293 cells after the addition of soluble L1.
as §3
(§7) For quantification of DNA fragmentation, supernatants were centrifuged at 200×g. […] The nuclei were then analyzed for DNA content by flow cytometry. […] Cells were analysed with a FACScan using Cellquest or FlowJo software from Becton Dickinson (Heidelberg, Germany).
as §5

HEK293 cells [5] = experiment: Soluble L1 rescue from staurosporine induced apoptosis, HEK293; type: cell-based, human; details: staurosporine 12 hours, purified soluble L1 10 μg/ml
Protocol: as §6, §3, §7, §5

FAK phosphorylation = FAK phosphorylation in HEK293 cells after addition of soluble L1; type: cell-based, human; details: addition of soluble L1 to HEK293 cells
Protocol: as §6, §1

L1-specific siRNA: L1 siRNA 5′-AGGGAUGG-UGUCCACCUUCAAAUU-3′ (SEQ ID NO: 1), synthesized by MWG-Biotech
phosphorylation of ERK and FAK [1]: no significant reduction
sensitivity to apoptosis induced by cisplatin or staurosporine (OVMz cells): significantly enhanced
L1 expression at the cell surface (L1): downregulation of L1 expression at the cell surface

N.N.[Cl][Pt][Cl] [cisplatin, cis-Diammineplatinum(II) dichloride]
IC50 (OVMz): > 14 µM
cells survived the treatment with cisplatin (HEK293 cells [2]): 40%
cells survived the treatment with cisplatin (HEK293-hL1 cells [3]): Approximately 70%
expression of L1 (m130 cells; cisplatin 3 weeks (10, 15, 20 μM), FACS and Western Blot): strongly enhanced
cell proliferation (m130 cells; long-term cisplatin treatment, data not shown): clearly decreased cell proliferation
IC50 (m130): 7 µM

COc1cccc(-c2cc(=O)c3ccccc3o2)c1N [PD59098]
cell migration (HEK293-hL1wt cells): Inhibition of cell migration was also observed

B1: soluble L1: soluble L1 ectodomain isolated from ascites fluid of ovarian carcinoma patients (protein, UniProt P32004 20-1120, looked up)
extracellular domain: IQIPEEYEGHHVMEPPVITEQSPRRLVVFPTDDISLKCEASGKPEVQFRWTRDGVHFKPKEELGVTVYQSPHSGSFTITGNNSNFAQRFQGIYRCFASNKLGTAMSHEIRLMAEGAPKWPKETVKPVEVEEGESVVLPCNPPPSAEPLRIYWMNSKILHIKQDERVTMGQNGNLYFANVLTSDNHSDYICHAHFPGTRTIIQKEPIDLRVKATNSMIDRKPRLLFPTNSSSHLVALQGQPLVLECIAEGFPTPTIKWLRPSGPMPADRVTYQNHNKTLQLLKVGEEDDGEYRCLAENSLGSARHAYYVTVEAAPYWLHKPQSHLYGPGETARLDCQVQGRPQPEVTWRINGIPVEELAKDQKYRIQRGALILSNVQPSDTMVTQCEARNRHGLLLANAYIYVVQLPAKILTADNQTYMAVQGSTAYLLCKAFGAPVPSVQWLDEDGTTVLQDERFFPYANGTLGIRDLQANDTGRYFCLAANDQNNVTIMANLKVKDATQITQGPRSTIEKKGSRVTFTCQASFDPSLQPSITWRGDGRDLQELGDSDKYFIEDGRLVIHSLDYSDQGNYSCVASTELDVVESRAQLLVVGSPGPVPRLVLSDLHLLTQSQVRVSWSPAEDHNAPIEKYDIEFEDKEMAPEKWYSLGKVPGNQTSTTLKLSPYVHYTFRVTAINKYGPGEPSPVSETVVTPEAAPEKNPVDVKGEGNETTNMVITWKPLRWMDWNAPQVQYRVQWRPQGTRGPWQEQIVSDPFLVVSNTSTFVPYEIKVQAVNSQGKGPEPQVTIGYSGEDYPQAIPELEGIEILNSSAVLVKWRPVDLAQVKGHLRGYNVTYWREGSQRKHSKRHIHKDHVVVPANTTSVILSGLRPYSSYHLEVQAFNGRGSGPASEFTFSTPEGVPGHPEALHLECQSNTSLLLRWQPPLSHNGVLTGYVLSYHPLDEGGKGQLSFNLRDPELRTHNLTDLSPHLRYRFQLQATTKEGPGEAIVREGGTMALSGISDFGNISATAGENYSVVSWVPKEGQCNFRFHILFKALGEEKGGASLSPQYVSYNQSSYTQWDLQPDTDYEIHLFKERMFRHQMAVKTNGTGRVRLPPAGFATE
modifications: extracellular domain
notes: soluble L1 ectodomain isolated from ascites fluid of ovarian carcinoma patients
cell survival (HEK293-hL1 cells [4]): enhanced survival of both cell lines to a similar degree
cell survival (HEK293 cells [5]): enhanced survival of both cell lines to a similar degree; also recorded: only partially rescue HEK293 cells from apoptosis
FAK phosphorylation (FAK phosphorylation): enhanced FAK phosphorylation
